For data set [1], the target named is T1, TrkB (Homo sapiens, UniProt Q16620). Put plainly: CellSensor TrkB-NFAT-bla CHO-K1 reporter gene assay (agonist, antagonist, PAM modes). Also on record: host or cells: CHO-K1. The class given is cell-based. As to the method:
The assays were configured using Invitrogen CHO-K1 cell lines stably expressing a β-lactamase gene under the control of a NFAT promoter region and the relevant Trk (A, B or C) receptor (except for the Trk null cell line). The activity of the β-lactamase enzyme was quantified via FRET with a fluorescent substrate containing a β-lactam ring, according to manufacturer’s provided protocol. All CellSensor® NFAT-bla CHO-K1 cell lines were seeded into black 384w assay plates in CellSensor® plating media (growth media without antibiotics) at 5,000 cells in a volume of 25 µL per well; cells were incubated at 37°C, 5% CO2 overnight. Then, the assay plating media was removed and replaced with 32 µL of assay media (plating media without serum) and returned to the incubator for 1 hour. […] Test compounds were added (4 µL) and cells were returned to the incubator for 1 hour; dependent on assay mode (agonist, antagonist or positive allosteric modulator) assay media alone (agonist mode), assay media containing EC80 neurotrophin (antagonist mode) or assay media containing EC20 neurotrophin (PAM mode) were then added to the cells (4 µL) for a further 4 hour incubation. ToxBLAzer detection reagent was reconstituted according to the manufacturer’s instructions and 8 µL/well added to the assay plates, these were then incubated at room temperature protected from light for 2 hours. Levels of β-lactamase activity were then quantified by measuring the fluorescent intensity ratio between ^EX400nm/^EM535nm and ^EX400nm/^EM460nm and cytotoxicity quantified by measuring the fluorescence intensity at ^EX590nm/^EM665nm using a Perkin Elmer EnVision.
(In general: A reporter such as luciferase makes a cellular process visible.)

Data set [2] concerns the target T1, TrkB. Also on record: method as in PMID 19549602. Particulars: hippocampal neurons; cited from earlier work.
The nature of data set [3]: Solubility assay under CellSensor assay conditions (HPLC-UV). The class given is physicochemical. To be noted: assay buffer, 0.5% DMSO; for Concentration @ t = 0: 0 hours; for Concentration @ t = 3: 3 hours; for Concentration @ t = 7: 7 hours. As to the method:
To align with the functional data, all compound samples and dilutions were prepared using the CellSensor® assay conditions that include: assay buffer, plates, sample volumes and the same timeframe. The assay incubation time was 7 hours. 0, 3 and 7 hour samples were analysed, in triplicate, in the final assay buffer (DMEM/Glutamax + NEAA + 20 mM Hepes pH7.4 + 0.01% BSA, final DMSO concentration 0.5%) at nominal compound concentrations of 5, 20 and 50 µM. […] The 7 and 3 hour samples were prepared at times which allowed simultaneous filtering and sample analysis.

In data set [4] the target is T1, TrkB. Also noted: host or cells: CHO-K1. Particulars: cited from earlier work.
Data set [5] deals with Trk null-NFAT-bla CHO-K1 cells. Put plainly: CellSensor Trk null-NFAT-bla CHO-K1 reporter gene assay. Particulars: Cricetulus griseus, Figure 2D, 5 hours. The class given is cell-based. As to the method: The assays were configured using Invitrogen CHO-K1 cell lines stably expressing a β-lactamase gene under the control of a NFAT promoter region and the relevant Trk (A, B or C) receptor (except for the Trk null cell line). The activity of the β-lactamase enzyme was quantified via FRET with a fluorescent substrate containing a β-lactam ring, according to manufacturer’s provided protocol. All CellSensor® NFAT-bla CHO-K1 cell lines were seeded into black 384w assay plates in CellSensor® plating media (growth media without antibiotics) at 5,000 cells in a volume of 25 µL per well; cells were incubated at 37°C, 5% CO2 overnight. Then, the assay plating media was removed and replaced with 32 µL of assay media (plating media without serum) and returned to the incubator for 1 hour. […] Levels of β-lactamase activity were then quantified by measuring the fluorescent intensity ratio between ^EX400nm/^EM535nm and ^EX400nm/^EM460nm and cytotoxicity quantified by measuring the fluorescence intensity at ^EX590nm/^EM665nm using a Perkin Elmer EnVision.

Data set [6] concerns TrkB, AKT and ERK1/2 phosphorylation. Put plainly: Western blot of TrkB, AKT and ERK1/2 phosphorylation in TrkB-NFAT-bla CHO-K1 cells. To be noted: LM22A-4 at low (10 µM) and high (83 µM), N-acetyl serotonin at high (83 µM) concentration; Figure 6E. The class given is cell-based. The source says:
Clarified cell lysates were resolved by SDS-PAGE, blotted onto nitrocellulose membranes and immunoprobed with the relevant primary and secondary antibody combinations. Anti-pTrkB Tyr^516 (4619), anti-pTrkB Tyr^706/707 (4621), anti-pTrkB, Tyr^816 (4168), anti-pERK1/2 […], anti-pAKT […], anti-TrkB (4603), anti-AKT (4685) and anti-ERK1/2 (4695) were sourced from Cell Signalling Technologies. Anti-GAPDH (IMG-5143A) was obtained from Imgenex; Goat anti-rabbit HRP conjugate (PO448) and Goat anti-mouse HRP conjugate (PO447) were sourced from Dako. Goat anti-mouse 800CW conjugate and Goat anti-rabbit 680 conjugate were sourced from LI-COR. Immunoreactive signals were detected using enhanced chemiluminescence reagent (Amersham) or using the Odyssey infra-red reader.
(In western blotting, separated proteins are transferred to a membrane and probed.)

The subject of data set [7] is striatal neurons. Put plainly: Primary neuronal mHTT-induced cell death assay (cortico-striatal co-culture). The format is cell-based, rat. Particulars: data not shown. The text has this: Cortical and striatal neurons were isolated from E18 rat embryos and separately transfected with a HTT exon1 fragment containing 73 CAG repeats (HTTN90Q73), together with a plasmid encoding for either a green AcGFP or a red AsRed fluorescent reporter before being plated on glial cells and treated with candidate pharmacological agents. After 5 days in culture, the number of fluorescent cells remaining was counted using an automated high content imaging and analysis platform (GE Healthcare InCell 2000) and any changes in neuronal survival quantified.

Results on 5 molecules are retold here after paper PMC3913682, “A Monoclonal Antibody TrkB Receptor Agonist as a Potential Therapeutic for Huntington’s Disease” (PLoS ONE, 2014).

T1 sequence (Q16620 32-822): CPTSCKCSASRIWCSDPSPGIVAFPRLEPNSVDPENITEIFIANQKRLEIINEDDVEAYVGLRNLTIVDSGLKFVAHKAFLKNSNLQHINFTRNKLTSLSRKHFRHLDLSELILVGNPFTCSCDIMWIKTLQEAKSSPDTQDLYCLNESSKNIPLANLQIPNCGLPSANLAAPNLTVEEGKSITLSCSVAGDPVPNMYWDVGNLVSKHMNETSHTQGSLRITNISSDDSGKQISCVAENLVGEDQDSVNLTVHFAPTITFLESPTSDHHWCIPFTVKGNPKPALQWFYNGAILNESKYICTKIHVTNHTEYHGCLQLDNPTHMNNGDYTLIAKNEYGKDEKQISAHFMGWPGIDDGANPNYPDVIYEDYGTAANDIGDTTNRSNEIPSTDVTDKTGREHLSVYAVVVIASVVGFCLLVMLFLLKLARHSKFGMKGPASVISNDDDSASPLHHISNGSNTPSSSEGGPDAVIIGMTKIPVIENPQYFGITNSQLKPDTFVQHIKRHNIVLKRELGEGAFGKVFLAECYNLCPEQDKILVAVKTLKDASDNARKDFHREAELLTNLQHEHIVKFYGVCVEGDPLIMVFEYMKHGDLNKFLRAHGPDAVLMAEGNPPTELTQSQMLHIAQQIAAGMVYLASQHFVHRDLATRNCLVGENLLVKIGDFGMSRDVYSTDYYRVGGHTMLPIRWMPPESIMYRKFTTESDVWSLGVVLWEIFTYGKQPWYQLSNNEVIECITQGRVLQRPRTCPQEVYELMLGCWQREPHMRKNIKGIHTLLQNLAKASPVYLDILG

As to `CN(C)CCC=C1c2ccccc2CCc2ccccc21` [Amitriptyline], in data set [1] (Figure 6B, in presence of ~EC20 BDNF (40 pM)), the “PAM activity, NFAT reporter gene assay, PAM mode (in words)” value is listed as “concentration-dependent TrkB inhibition”. For the same molecule, the “Potency relative to the cognate neurotrophin (less potent)” value in data set [2] is listed as roughly 100 fold. Besides, in data set [3] (nominal concentration 5 µM), the “Concentration @ t = 0” value came out at 3.7 µM, the “Concentration @ t = 3” value is on record as 4.3 µM and the “Concentration @ t = 7” value was 3.2 µM. In data set [3] (nominal concentration 20 µM), the “Concentration @ t = 0” value is 7.6 µM, the “Concentration @ t = 3” value is listed as 7.1 µM and the “Concentration @ t = 7” value was found to be 5.9 µM. For the same molecule, in data set [3] (nominal concentration 50 µM), the “Concentration @ t = 0” value is reported as 33 µM, the “Concentration @ t = 3” value was 27 µM and the “Concentration @ t = 7” value worked out at 27 µM. For the same molecule, in data set [4], the “Published in vitro activity (in words)” value is given as “Neuronal TrkA/B agonist; Neuroprotective” and the “Published in vitro activity: Activity” value is 10 to 250 nM.

Take `C/C=C(/C)C(=O)O[C@H]1C(C)=C2[C@H]([C@@H]1OC(=O)CCCCCCC)[C@@](C)(OC(C)=O)C[C@H](OC(=O)CCC)[C@@]1(O)[C@H]2OC(=O)[C@@]1(C)O` [Thapsigargin]: a half-maximal effect in data set [5] (EC50) was put at 1.6 nM.

As for `COC(=O)[C@H]1[C@H]2C[C@@H]3c4[nH]c5cc(OC)ccc5c4CCN3C[C@H]2C[C@@H](OC(=O)c2cc(OC)c(OC)c(OC)c2)[C@@H]1OC` [Reserpine], the “Concentration @ t = 0” value in data set [3] (nominal concentration 5 µM) came to 2.8 µM; in data set [3] (nominal concentration 20 µM), 3.4 µM; in data set [3] (nominal concentration 50 µM), 6.7 µM. Also, the “Concentration @ t = 3” value in data set [3] (nominal concentration 5 µM) came out at 3.0 µM; in data set [3] (nominal concentration 20 µM), 2.9 µM; in data set [3] (nominal concentration 50 µM), 4.5 µM. Also, the “Concentration @ t = 7” value is listed as 3.7 µM in data set [3] (nominal concentration 5 µM), 4.5 µM in data set [3] (nominal concentration 20 µM) and 6.9 µM in data set [3] (nominal concentration 50 µM).

`CC(=O)NCCc1c[nH]c2ccc(O)cc12` [N-acetyl serotonin]: the “Basal phospho-ERK1/2 immunoreactive bands” value in data set [6] is “absence of immunoreactive bands”. In data set [3] (nominal concentration 5 µM), the “Concentration @ t = 0” value amounted to 7.6 µM, the “Concentration @ t = 3” value was determined as 8.8 µM and the “Concentration @ t = 7” value is 10 µM. In data set [3] (nominal concentration 20 µM), the “Concentration @ t = 0” value is 13 µM, the “Concentration @ t = 3” value is 14 µM and the “Concentration @ t = 7” value came to 17 µM. In data set [3] (nominal concentration 50 µM), the “Concentration @ t = 0” value stood at 38 µM, the “Concentration @ t = 3” value stood at 44 µM and the “Concentration @ t = 7” value came to 49 µM. In data set [4], the “Published in vitro activity (in words)” value is reported as “Neuronal TrkB agonist” and the “Published in vitro activity: Activity” value is recorded as 100 nM.

For `COc1ccc(C(=O)c2cn(C(C)C)c3ncnc(N)c23)cc1NC(=O)Nc1ccc(Cl)cc1Cl` [pan-Trk kinase inhibitor, 1-(5-(4-amino-7-isopropyl-7H-pyrrolo[2,3-d]pyrimidine-5-carbonyl)-2-methoxyphenyl)-3-(2,4-dichlorophenyl)urea], the “Effect on antibody effects in striatal neurons” value in data set [7] is “reversed”. Also, the “Effect on induction of NFAT activity by TrkB mAbs” value in data set [1] (co-incubation, pan-Trk inhibitor 100 nM) is listed as “completely prevented”.

What is called EC50 is the concentration giving half of the maximal effect. A high value points to lower potency in that assay.
